Measured values taken from US20220232831A1, “NOVEL NON-CODING HETEROCYCLIC AMINO ACIDS (NCHAA) AND THEIR USE AS HERBICIDES” (Fortephest Ltd., priority 2019, published 2022).
Where a SMILES comes first, the peptide text is derived from it. [ ]: non-standard residue; d: D form. ξ: configuration not given here. ξ3Thi = NC(Cc1ccsc1)C(=O)O

Experiments:
[1] = test system: Romaine lettuce (Lactuca sativa L.) plants; assay: Post-emergency herbicidal activity on Romaine lettuce plants; format: in vivo; conditions: Romaine lettuce at stage 2 to 3 leaves; compound in 0.1% Silwet, up to 0.5%; visual evaluation vs control plants
Protocol: The tests were performed on Romaine lettuce (Lactuca sativa L.) plants at the stage 2 to 3 leaves. The plants were grown on 300 well trays packed with soil, well dimensions 2×2×5 cm. Each compound was dissolved in 0.1% water solution of agronomically acceptable surfactant Silwet to final concentrations ranging from 0.0% (Control) to 0.5%. Two weeks after the treatment the herbicidal effects of the respective test material were visually evaluated by a comparison with the control plants. In addition, the aboveground part of the plant was neatly cut and weighed (wet weight). Each test was performed on 20 to 40 plants. The degree of growth inhibition and damage was evaluated according to the parameters in Table 2. Plant development at 7, 14, and 21 DAA (days after application) were evaluated on a scale of 0 to 100, in which score 0 represents dead plants and score 100 represents healthy plants according to plant vigor, height, and leaf color. Each test included 20 to 40 plants.

[2] = test system: Seeds of Lettuce R. (Super-Jericho); assay: Filter paper bioassay with lettuce seeds (germination and early plant development); format: in vivo; conditions: lettuce seeds on filter paper; 1, 0.1, 0.01, 0.001 mM; radicle and shoots assessed after 6 days
Protocol: Seeds of Lettuce R. (Super-Jericho, non-sterilized) were obtained from Ben Shahar Moshe Ltd., 99% purity.
Filter Paper Bioassays with Lettuce Seeds:
The protocol is following Bertin et al. 2009 and Movellan et al. 2014 with specified modifications as described below.
Seeds were placed on Whatman no. 1 filter paper (Whatman, Middlesex, U.K.) in Petri dishes (10 seeds per plate) supplemented with 2.0 ml of water (Control) or with a solution comprising 1 mM, 0.1 mM, 0.01 mM and 0.001 mM of test material. Petri dishes with seeds were placed in a tray at an angle of 45°. The trays were kept in dark for 48 hours and then transferred to the growth chamber (22° C., 0.045 mmol×m−2×s−1 photosynthetic photon flux density; 6/18 dark/light cycle) for additional 4 days. Each experiment was performed at least in two repeats. The development of radicle and shoots of experimental and control plants were visually assessed 6 days after the beginning of the test to determine Minimal Effective Concentration (MEC) of test material. In the context of the invention, MEC is defined as the lowest concentration level of a test material that caused deviation (absence of germination or malformation of radicle and shoots) from the plant's development in the Control group.

Row | Structure (SMILES) | post-emergency herbicidal activity (Activity Index: plant's development vs Control) [1] | Minimal Effective Concentration (MEC) as activity score, seeds germination & early plants development [2]
1 | NC(Cc1cccs1)C(=O)O (centres unmarked) [Code 501] | Strong (From 25 to 50) | Maximal (0.01 mM and less)
2 | NC(Cc1ccsc1)C(=O)O (centres unmarked) [Code 502] | Very Strong (From 15 to 25) | Maximal (0.01 mM and less)
3 | NC(CNS(=O)(=O)c1ccsc1)C(=O)O (centres unmarked) [Code 504] | Weak (More than 75) | Weak (More than 1 mM)
4 | NC(CNS(=O)(=O)c1cscc1F)C(=O)O (centres unmarked) [Code 506] | Weak (More than 75) | Weak (More than 1 mM)
5 | COC(=O)C(N)CNS(=O)(=O)c1ccsc1 (centres unmarked) [Code 507] | Weak (More than 75) | Weak (More than 1 mM)
6 | N#Cc1cc(C[C@H](N)C(=O)O)cs1 [Code 509] | Maximal (Less than 15) | Strong (0.1 mM)
7 | NC(Cc1cc(C(F)(F)F)cs1)C(=O)O (centres unmarked) [Code 510] | Strong (From 25 to 50) | –
8 | NC(CC(=O)O)c1cscc1Br (centres unmarked) [Code 511] | Weak (More than 75) | Weak (More than 1 mM)
9 | Cc1sc(C)c(CC(N)C(=O)O)c1C (centres unmarked) [Code 512] | Weak (More than 75) | Weak (More than 1 mM)
10 | CCCCOC(=O)C(N)Cc1ccsc1 (centres unmarked) [Code 513] | Very Strong (From 15 to 25) | Strong (0.1 mM)
11 | NC(CNS(=O)(=O)c1cc(Cl)sc1Cl)C(=O)O (centres unmarked) [Code 514] | Weak (More than 75) | Weak (More than 1 mM)
12 | Cc1c(Cl)sc(Cl)c1S(=O)(=O)NCC(N)C(=O)O (centres unmarked) [Code 515] | Weak (More than 75) | Weak (More than 1 mM)
13 | NC(Cc1ccsc1Cl)C(=O)O (centres unmarked) [Code 516] | Maximal (Less than 15) | Maximal (0.01 mM and less)
14 | NC(Cc1csc(Cl)c1)C(=O)O (centres unmarked) [Code 518] | Strong (From 25 to 50) | –
15 | NC(CC1=NCSC1)C(=O)O (centres unmarked) [Code 519] | Moderate (From 50 to 75) | Maximal (0.01 mM and less)
16 | NC(Cc1cncs1)C(=O)O (centres unmarked) [Code 520] | Weak (More than 75) | Strong (0.1 mM)
17 | NC(CNS(=O)(=O)c1c(Cl)sc(Cl)c1C(F)(F)F)C(=O)O (centres unmarked) [Code 521] | Weak (More than 75) | Weak (More than 1 mM)
18 | Nc1nc(CC(N)C(=O)O)cs1 (centres unmarked) [Code 522] | Weak (More than 75) | Weak (More than 1 mM)
19 | COC(=O)C(N)CNS(=O)(=O)c1cc(Cl)sc1Cl (centres unmarked) [Code 523] | Weak (More than 75) | Weak (More than 1 mM)
20 | CCOC(=O)C(N)CNS(=O)(=O)c1cc(Cl)sc1Cl (centres unmarked) [Code 524] | Weak (More than 75) | Weak (More than 1 mM)
21 | CCCOCCOC(=O)C(N)CNS(=O)(=O)c1cc(Cl)sc1Cl (centres unmarked) [Code 525] | Weak (More than 75) | Weak (More than 1 mM)
22 | CCOC(=O)C(CN(C(=O)O)S(=O)(=O)c1cc(Cl)sc1Cl)NC(=O)O (centres unmarked) [Code 526] | Weak (More than 75) | Weak (More than 1 mM)
23 | NC(Cc1nc(Cl)sc1Cl)C(=O)O (centres unmarked) [Code 527] | Maximal (Less than 15) | Moderate (1 mM)
24 | NC(Cc1ncsc1Cl)C(=O)O (centres unmarked) [Code 528] | Weak (More than 75) | Moderate (1 mM)

Row | Structure (SMILES) | post-emergency herbicidal activity (Activity Index: plant's development vs Control) [1] | Minimal Effective Concentration (MEC) as activity score, seeds germination & early plants development [2]
25 | NC(Cc1cnsn1)C(=O)O (centres unmarked) [Code 529] | Moderate (From 50 to 75) | Strong (0.1 mM)
26 | NC(Cc1ncns1)C(=O)O (centres unmarked) [Code 532] | Moderate (From 50 to 75) | Strong (0.1 mM)
27 | NC(Cc1ccoc1)C(=O)O (centres unmarked) [Code 534] | Strong (From 25 to 50) | Moderate (1 mM)
28 | NC(Cc1cocn1)C(=O)O (centres unmarked) [Code 542] | Weak (More than 75) | Weak (More than 1 mM)
29 | O=CNC(Cc1ccsc1)C(=O)O (centres unmarked) [Code 545] | Weak (More than 75) | Weak (More than 1 mM)
30 | COC(=O)C(N)Cc1ccsc1 (centres unmarked) [Code 546] | Very Strong (From 15 to 25) | Maximal (0.01 mM and less)
31 | CCOC(=O)C(N)Cc1ccsc1 (centres unmarked) [Code 547] | Very Strong (From 15 to 25) | Maximal (0.01 mM and less)
32 | NC(Cc1ccsc1)C(=O)NCC(=O)O (centres unmarked) [Code 548] (H-[ξ3Thi]-Gly-OH) | Strong (From 25 to 50) | –
33 | NC(Cc1ccsc1)C(=O)NCCOCCO (centres unmarked) [Code 549] | Weak (More than 75) | Weak (More than 1 mM)
34 | CCCC(=O)NC(Cc1nc(Cl)sc1Cl)C(=O)OCC (centres unmarked) [Code 550] | Maximal (Less than 15) | –
35 | CCCCOCCOC(=O)C(Cc1nc(Cl)sc1Cl)NC(C)=O (centres unmarked) [Code 551] | Maximal (Less than 15) | –
36 | CCCCOC(=O)C(Cc1nc(Cl)sc1Cl)NC(C)=O (centres unmarked) [Code 554] | Maximal (Less than 15) | –
37 | Cc1sc(Cl)cc1CC(N)C(=O)O (centres unmarked) [Code 559] | Moderate (From 50 to 75) | –
38 | NC(Cc1ccsc1Br)C(=O)O (centres unmarked) [Code 560] | Strong (From 25 to 50) | –
39 | COC(=O)C(N)Cc1cc(Cl)sc1Cl (centres unmarked) [Code 568] | Maximal (Less than 15) | –
40 | Cl.NC(Cc1n[nH]c2ccccc12)C(=O)O (centres unmarked) [Code 599] | – | Maximal (0.01 mM and less)
41 | Cn1cnnc1CC(N)C(=O)O (centres unmarked) [Code 717] | Weak (More than 75) | –
42 | Cl.Cl.Cn1ncnc1CC(N)C(=O)O (centres unmarked) [Code 770] | Weak (More than 75) | –
43 | Cl.Cn1cc(CC(N)C(=O)O)nn1 (centres unmarked) [Code 771] | Weak (More than 75) | –
44 | Cl.Cn1nnc(CC(N)C(=O)O)n1 (centres unmarked) [Code 772] | Moderate (From 50 to 75) | –
45 | Cc1nnc(CC(N)C(=O)O)n1C.Cl (centres unmarked) [Code 773] | Weak (More than 75) | –
46 | N[C@@H](Cc1cn[nH]c1C(F)(F)F)C(=O)O [Code 774] | Very Strong (From 15 to 25) | –
47 | CCCCOCCOCCOC(=O)C(N)Cc1cn[nH]n1 (centres unmarked) [Code 775] | Maximal (Less than 15) | –
